Test system: Her2
Assay: Degradation of Her2 in BT-474 cells, Western blot (Method 1)
Format: cell-based, human
Conditions: 0.5 μM, overnight, positive control
Method: Human high-Her2 breast carcinoma BT474 (HTB-20), SK-BR-3 (HTB-30) and MCF-7 breast carcinoma (HTB-22) from American Type Culture Collection, VA, USA were grown in Dulbecco's modified Eagle's medium with 4 mM L-glutamine and antibiotics (100 IU/ml penicillin and 100 ug/ml streptomycine; GibcoBRL). To obtain exponential cell growth; cells were trypsinized, counted and seeded at a cell density of 0.5×10^6 cells/ml regularly, every 3 days. All experiments were performed on day 1 after cell passage.
BT-474 cells are treated with 0.5 μM, 2 μM, or 5 μM of 17AAG (a positive control) or 0.5 μM, 2 μM, or 5 μM of a compound of the invention overnight in DMEM medium. After treatment, each cytoplasmic sample is prepared from 1×10^6 cells by incubation of cell lysis buffer (#9803, cell Signaling Technology) on ice for 10 minutes. The resulting supernatant used as the cytosol fractions is dissolved with sample buffer for SDS-PAGE and run on a SDS-PAGE gel, blotted onto a nitrocellulose membrane by using semi-dry transfer. Non-specific binding to nitrocellulose is blocked with 5% skim milk in TBS with 0.5% Tween at room temperature for 1 hour, then probed with anti-Her2/ErB2 mAb (rabbit IgG, #2242, Cell Signaling) and anti-Tubulin (T9026, Sigma) as housekeeping control protein. […]

Compound: C=CCNC1=C2C[C@@H](C)C[C@H](OC)[C@H](O)[C@@H](C)/C=C(\C)[C@H](OC(N)=O)[C@@H](OC)/C=C\C=C(/C)C(=O)NC(=CC1=O)C2=O [Compound 17AAG, 17-allylamino-17-demethoxygeldanamycin]
- degradation of Her2: partial degradation of Her2
